Reference: the NIST ThermoML archive (doi:10.1021/je9009442)
Numbers after ± are expanded uncertainties.

Assay: wn = mass fraction of the nth substance listed
Settings: Liquid, inclined tube viscometer, w1 = 0.505

FC(F)C(F)(F)F [pentafluoroethane] + FCF
Settings | kinematic viscosity [m2/s]
256.15 K | 1.72e-07 ± 1.5e-09
258.15 K | 1.685e-07 ± 1.5e-09
260.15 K | 1.652e-07 ± 1.5e-09
262.15 K | 1.619e-07 ± 1.4e-09
264.15 K | 1.587e-07 ± 1.4e-09
266.15 K | 1.556e-07 ± 1.4e-09
268.15 K | 1.526e-07 ± 1.3e-09
270.15 K | 1.497e-07 ± 1.3e-09
272.15 K | 1.468e-07 ± 1.3e-09
274.15 K | 1.44e-07 ± 1.3e-09
276.15 K | 1.413e-07 ± 1.2e-09
278.15 K | 1.386e-07 ± 1.2e-09
280.15 K | 1.36e-07 ± 1.2e-09
282.15 K | 1.335e-07 ± 1.2e-09
284.15 K | 1.31e-07 ± 1.2e-09
286.15 K | 1.285e-07 ± 1.1e-09
288.15 K | 1.262e-07 ± 1.1e-09
290.15 K | 1.238e-07 ± 1.1e-09
292.15 K | 1.215e-07 ± 1.1e-09
294.15 K | 1.193e-07 ± 1e-09
296.15 K | 1.171e-07 ± 1e-09
298.15 K | 1.15e-07 ± 1e-09
300.15 K | 1.129e-07 ± 1e-09
302.15 K | 1.108e-07 ± 1e-09
304.15 K | 1.088e-07 ± 1e-09
306.15 K | 1.068e-07 ± 9e-10
308.15 K | 1.048e-07 ± 9e-10
310.15 K | 1.029e-07 ± 9e-10
312.15 K | 1.01e-07 ± 9e-10
314.15 K | 9.92e-08 ± 9e-10
316.15 K | 9.73e-08 ± 9e-10
318.15 K | 9.55e-08 ± 8e-10
320.15 K | 9.38e-08 ± 8e-10
322.15 K | 9.2e-08 ± 8e-10
324.15 K | 9.03e-08 ± 8e-10
326.15 K | 8.86e-08 ± 8e-10
328.15 K | 8.7e-08 ± 8e-10
330.15 K | 8.53e-08 ± 8e-10
332.15 K | 8.37e-08 ± 7e-10
334.15 K | 8.21e-08 ± 7e-10
336.15 K | 8.06e-08 ± 7e-10
